Earlier results in patent US20070116750A1, “Compositions for disrupting and inhibiting reconstitution of wound biofilm” (priority 2005, published 2007).

Test system: established biofilm
Conditions: applied at full strength to an established biofilm

In the case of `OCl` [sodium hypochlorite], the biofilm killed is given as 50%.
